Test results as given in US8192962B2, “Processes for detecting toxic substances” (Daikin Industries, Ltd., priority 2001, dated 2012).

Tested on: Detoxification protein genes
Assay: DNA chip mRNA expression in yeast, detoxification protein genes (Table 8)
Assay type: cell-based, Saccharomyces cerevisiae S288C
Summary of the method: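 Values are treated/untreated fluorescence ratios from a whole-genome yeast DNA chip hybridized over 12 hours at 65° C with Cy3- or Cy5-labelled cDNA from poly(A) mRNA. Log-phase S288C yeast in YPD at 25° C had received a single toxic chemical for two hours, dosed to slow growth without killing.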

`S=C([S-])NCCNC(=S)[S-].[Zn+2]` [(11), zinc N,N′-ethylenebis(dithiocarbamate)] was tested, and the “The level of expressed mRNA in the presence of chemical substance/The level of expressed mRNA in the absence of chemical substance” value (yeast gene YBL064C) was 2.9, the “The level of expressed mRNA in the presence of chemical substance/The level of expressed mRNA in the absence of chemical substance” value (yeast gene YBR008C) was 9.4 and the “The level of expressed mRNA in the presence of chemical substance/The level of expressed mRNA in the absence of chemical substance” value (yeast gene YBR145W) was 1.1. The “The level of expressed mRNA in the presence of chemical substance/The level of expressed mRNA in the absence of chemical substance” value (yeast gene YBR244W) was 1.5, the “The level of expressed mRNA in the presence of chemical substance/The level of expressed mRNA in the absence of chemical substance” value (yeast gene YBR293W) was 1.1 and the “The level of expressed mRNA in the presence of chemical substance/The level of expressed mRNA in the absence of chemical substance” value (yeast gene YCL035C) was 2.1. The “The level of expressed mRNA in the presence of chemical substance/The level of expressed mRNA in the absence of chemical substance” value (yeast gene YCL069W) was 1.0, the “The level of expressed mRNA in the presence of chemical substance/The level of expressed mRNA in the absence of chemical substance” value (yeast gene YCR083W) was 1.8 and the “The level of expressed mRNA in the presence of chemical substance/The level of expressed mRNA in the absence of chemical substance” value (yeast gene YDL100C) was 2.8. The “The level of expressed mRNA in the presence of chemical substance/The level of expressed mRNA in the absence of chemical substance” value (yeast gene YDL168W) was 1.9, the “The level of expressed mRNA in the presence of chemical substance/The level of expressed mRNA in the absence of chemical substance” value (yeast gene YDR256C) was 1.4 and the “The level of expressed mRNA in the presence of chemical substance/The level of expressed mRNA in the absence of chemical substance” value (yeast gene YDR453C) was 2.3. For the same compound, the “The level of expressed mRNA in the presence of chemical substance/The level of expressed mRNA in the absence of chemical substance” value (yeast gene YDR513W) was 2.0, the “The level of expressed mRNA in the presence of chemical substance/The level of expressed mRNA in the absence of chemical substance” value (yeast gene YDR538W) was 0.9 and the “The level of expressed mRNA in the presence of chemical substance/The level of expressed mRNA in the absence of chemical substance” value (yeast gene YEL027W) was 0.9. For the same compound, the “The level of expressed mRNA in the presence of chemical substance/The level of expressed mRNA in the absence of chemical substance” value (yeast gene YEL065W) was 0.6, the “The level of expressed mRNA in the presence of chemical substance/The level of expressed mRNA in the absence of chemical substance” value (yeast gene YER185W) was 1.6 and the “The level of expressed mRNA in the presence of chemical substance/The level of expressed mRNA in the absence of chemical substance” value (yeast gene YFL050C) was 1.2. The “The level of expressed mRNA in the presence of chemical substance/The level of expressed mRNA in the absence of chemical substance” value (yeast gene YGL013C) was 0.9, the “The level of expressed mRNA in the presence of chemical substance/The level of expressed mRNA in the absence of chemical substance” value (yeast gene YGL254W) was 1.1 and the “The level of expressed mRNA in the presence of chemical substance/The level of expressed mRNA in the absence of chemical substance” value (yeast gene YGR088W) was 3.9. The “The level of expressed mRNA in the presence of chemical substance/The level of expressed mRNA in the absence of chemical substance” value (yeast gene YGR138C) was 0.7, the “The level of expressed mRNA in the presence of chemical substance/The level of expressed mRNA in the absence of chemical substance” value (yeast gene YGR197C) was 1.1 and the “The level of expressed mRNA in the presence of chemical substance/The level of expressed mRNA in the absence of chemical substance” value (yeast gene YGR209C) was 3.1. The “The level of expressed mRNA in the presence of chemical substance/The level of expressed mRNA in the absence of chemical substance” value (yeast gene YGR224W) was 0.8, the “The level of expressed mRNA in the presence of chemical substance/The level of expressed mRNA in the absence of chemical substance” value (yeast gene YHL040C) was 1.7 and the “The level of expressed mRNA in the presence of chemical substance/The level of expressed mRNA in the absence of chemical substance” value (yeast gene YHL047C) was 1.0. The “The level of expressed mRNA in the presence of chemical substance/The level of expressed mRNA in the absence of chemical substance” value (yeast gene YHR008C) was 2.1, the “The level of expressed mRNA in the presence of chemical substance/The level of expressed mRNA in the absence of chemical substance” value (yeast gene YHR048W) was 2.0 and the “The level of expressed mRNA in the presence of chemical substance/The level of expressed mRNA in the absence of chemical substance” value (yeast gene YHR053C) was 1.4. The “The level of expressed mRNA in the presence of chemical substance/The level of expressed mRNA in the absence of chemical substance” value (yeast gene YHR055C) was 1.8, the “The level of expressed mRNA in the presence of chemical substance/The level of expressed mRNA in the absence of chemical substance” value (yeast gene YIR002C) was 0.8 and the “The level of expressed mRNA in the presence of chemical substance/The level of expressed mRNA in the absence of chemical substance” value (yeast gene YIR038C) was 3.4. The “The level of expressed mRNA in the presence of chemical substance/The level of expressed mRNA in the absence of chemical substance” value (yeast gene YJL101C) was 2.7, the “The level of expressed mRNA in the presence of chemical substance/The level of expressed mRNA in the absence of chemical substance” value (yeast gene YJR104C) was 2.6 and the “The level of expressed mRNA in the presence of chemical substance/The level of expressed mRNA in the absence of chemical substance” value (yeast gene YKL026C) was 3.0. The “The level of expressed mRNA in the presence of chemical substance/The level of expressed mRNA in the absence of chemical substance” value (yeast gene YKL064W) was 0.7, the “The level of expressed mRNA in the presence of chemical substance/The level of expressed mRNA in the absence of chemical substance” value (yeast gene YKR066C) was 1.3 and the “The level of expressed mRNA in the presence of chemical substance/The level of expressed mRNA in the absence of chemical substance” value (yeast gene YKR105C) was 0.0. For the same compound, the “The level of expressed mRNA in the presence of chemical substance/The level of expressed mRNA in the absence of chemical substance” value (yeast gene YKR106W) was 1.8, the “The level of expressed mRNA in the presence of chemical substance/The level of expressed mRNA in the absence of chemical substance” value (yeast gene YLL028W) was 0.7 and the “The level of expressed mRNA in the presence of chemical substance/The level of expressed mRNA in the absence of chemical substance” value (yeast gene YLL057C) was 1.3. For the same compound, the “The level of expressed mRNA in the presence of chemical substance/The level of expressed mRNA in the absence of chemical substance” value (yeast gene YLL060C) was 14.1, the “The level of expressed mRNA in the presence of chemical substance/The level of expressed mRNA in the absence of chemical substance” value (yeast gene YLR043C) was 1.4 and the “The level of expressed mRNA in the presence of chemical substance/The level of expressed mRNA in the absence of chemical substance” value (yeast gene YLR046C) was 0.9. For the same compound, the “The level of expressed mRNA in the presence of chemical substance/The level of expressed mRNA in the absence of chemical substance” value (yeast gene YML028W) was 1.0, the “The level of expressed mRNA in the presence of chemical substance/The level of expressed mRNA in the absence of chemical substance” value (yeast gene YML116W) was 4.3 and the “The level of expressed mRNA in the presence of chemical substance/The level of expressed mRNA in the absence of chemical substance” value (yeast gene YMR015C) was 1.0. For the same compound, the “The level of expressed mRNA in the presence of chemical substance/The level of expressed mRNA in the absence of chemical substance” value (yeast gene YMR038C) was 2.7, the “The level of expressed mRNA in the presence of chemical substance/The level of expressed mRNA in the absence of chemical substance” value (yeast gene YNL239W) was 1.9 and the “The level of expressed mRNA in the presence of chemical substance/The level of expressed mRNA in the absence of chemical substance” value (yeast gene YNL241C) was 3.0. The “The level of expressed mRNA in the presence of chemical substance/The level of expressed mRNA in the absence of chemical substance” value (yeast gene YNL259C) was 1.6, the “The level of expressed mRNA in the presence of chemical substance/The level of expressed mRNA in the absence of chemical substance” value (yeast gene YOL158C) was 0.7 and the “The level of expressed mRNA in the presence of chemical substance/The level of expressed mRNA in the absence of chemical substance” value (yeast gene YOR031W) was 1.2. The “The level of expressed mRNA in the presence of chemical substance/The level of expressed mRNA in the absence of chemical substance” value (yeast gene YOR153W) was 1.0, the “The level of expressed mRNA in the presence of chemical substance/The level of expressed mRNA in the absence of chemical substance” value (yeast gene YOR247W) was 2.9 and the “The level of expressed mRNA in the presence of chemical substance/The level of expressed mRNA in the absence of chemical substance” value (yeast gene YOR251C) was 1.0. The “The level of expressed mRNA in the presence of chemical substance/The level of expressed mRNA in the absence of chemical substance” value (yeast gene YOR273C) was 1.5, the “The level of expressed mRNA in the presence of chemical substance/The level of expressed mRNA in the absence of chemical substance” value (yeast gene YPL163C) was 0.5 and the “The level of expressed mRNA in the presence of chemical substance/The level of expressed mRNA in the absence of chemical substance” value (yeast gene YPR200C) was 2.0.
